The record followed here is article PMC7144530 (The Journal of Experimental Medicine, 2020).

The test system of this test is CD8 T cells (CD4-depleted splenocytes). As to the kind of experiment: IFN-gamma ELISpot of CD8 T cells from mice immunized with mutant SLP + adjuvant. It counts as in vivo, mouse. To be noted: long peptide ELISpot, immunized vs control; positivity needs effect size ≥2.

As for “IYEFDYHLYGQNITMIMTSVSGHL [Mutation C-117]”, the “fold-change of IFN-gamma spot counts after vaccination” value turned out to be 1.94.
